Reference: patent US20250129067A1 (Progentos Therapeutics, Inc., priority 2021, published 2025)

Legend:
[1] = test system: Oligodendrocyte progenitor cells (OPCs); assay: In vitro OPC differentiation assay, GPR17 expression (immunocytochemistry); conditions: 3 μM (10× concentration, final 0.3 μM); 72 hours; fold change over vehicle
[2] = molecular target: PDGFRα (Homo sapiens (Human), UniProt P16234); assay: PDGFRα kinase enzyme assay (Promega PDGFRα Kinase Enzyme System, ADP-Glo); assay type: biochemical; conditions: 11-point dose response, 10,000 nM to 0.169 nM; 150 uM ATP; BLQ = below limit of quantitation; read-out: IC50 Values on PDGFRα Kinase Inhibition, IC50
Outline: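 Read-out was ADP-Glo: remaining ATP depleted, ADP converted to luminescence and compared with a standard curve.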

Chain of PDGFRα (P16234 24-1089): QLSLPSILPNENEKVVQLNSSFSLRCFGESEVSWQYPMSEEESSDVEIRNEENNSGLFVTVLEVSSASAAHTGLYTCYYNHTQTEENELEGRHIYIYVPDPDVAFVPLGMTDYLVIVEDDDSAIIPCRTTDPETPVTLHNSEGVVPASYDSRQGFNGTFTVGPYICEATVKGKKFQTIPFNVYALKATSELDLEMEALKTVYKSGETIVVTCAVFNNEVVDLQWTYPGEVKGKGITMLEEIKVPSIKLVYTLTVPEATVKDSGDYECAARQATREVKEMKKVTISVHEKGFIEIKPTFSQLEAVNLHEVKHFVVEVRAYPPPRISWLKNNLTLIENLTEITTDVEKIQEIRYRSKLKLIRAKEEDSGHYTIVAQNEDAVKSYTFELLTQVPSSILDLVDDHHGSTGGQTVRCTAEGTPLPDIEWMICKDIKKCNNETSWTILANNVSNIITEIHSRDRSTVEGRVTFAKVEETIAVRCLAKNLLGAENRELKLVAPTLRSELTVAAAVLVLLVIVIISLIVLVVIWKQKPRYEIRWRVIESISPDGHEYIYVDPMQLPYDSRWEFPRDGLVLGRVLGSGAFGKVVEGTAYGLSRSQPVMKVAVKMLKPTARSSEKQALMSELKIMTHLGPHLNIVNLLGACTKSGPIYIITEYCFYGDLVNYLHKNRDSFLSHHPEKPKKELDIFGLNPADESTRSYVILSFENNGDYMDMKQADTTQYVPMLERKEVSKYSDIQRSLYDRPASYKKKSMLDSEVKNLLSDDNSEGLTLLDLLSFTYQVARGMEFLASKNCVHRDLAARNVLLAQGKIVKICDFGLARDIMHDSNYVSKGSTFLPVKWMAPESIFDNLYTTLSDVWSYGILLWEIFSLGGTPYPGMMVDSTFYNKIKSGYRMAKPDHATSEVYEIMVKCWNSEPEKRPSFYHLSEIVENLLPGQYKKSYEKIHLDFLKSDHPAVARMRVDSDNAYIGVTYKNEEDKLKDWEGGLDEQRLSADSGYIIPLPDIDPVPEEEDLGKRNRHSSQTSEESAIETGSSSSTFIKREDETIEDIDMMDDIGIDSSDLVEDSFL

| GPR17 Fold Induction (Over Vehicle; 3 μM) [1] | IC50 [2] | SMILES |
| --- | --- | --- |
| 2.64 | 4.53 µM | Cn1cc(-c2ccc3c(N4CCN(c5ncc(Cc6ccccc6)cn5)C(=O)C4)cnn3c2)cn1 [Compound 144, 1-(5-benzylpyrimidin-2-yl)-4-(6-(1-methyl-1H-pyrazol-4-yl)pyrazolo[1,5-a]pyridin-3-yl)piperazin-2-one] |
| 0.58 | > 10 µM | CC(C)(C)OC(=O)N1CCCN(c2cnc3nc(C4CCOC4)ccn23)CC1 (stereo not shown) [Compound 107, tert-butyl 4-(7-(tetrahydrofuran-3-yl)imidazo[1,2-a]pyrimidin-3-yl)-1,4-diazepane-1-carboxylate] |
| 0.95 | > 10 µM | Cn1nnc(-c2ccc3c(N4CCN(C(=O)OC(C)(C)C)CC4)cnn3c2)n1 [Compound 237, tert-butyl 4-(6-(2-methyl-2H-tetrazol-5-yl)pyrazolo[1,5-a]pyridin-3-yl)piperazine-1-carboxylate] |
| 2.96 | > 10 µM | Cn1cc(-c2ccc3c(N4CCN(c5ncc(Cc6ncon6)cn5)CC4)cnn3c2)cn1 [Compound 301, 3-((2-(4-(6-(1-methyl-1H-pyrazol-4-yl)pyrazolo[1,5-a]pyridin-3-yl)piperazin-1-yl)pyrimidin-5-yl)methyl)-1,2,4-oxadiazole] |
| 6.49 | 0.948 µM | Cn1cc(-c2cc3ncc(N4CCN(C(=O)OC(C)(C)C)CC4)n3cn2)cn1 [Compound 83, tert-butyl 4-(7-(1-methyl-1H-pyrazol-4-yl)imidazo[1,2-c]pyrimidin-3-yl)piperazine-1-carboxylate] |
| 4.05 | 4.33 µM | Cn1cc(-c2ccc3c(N4CCN(c5ncc(Cc6nnco6)cn5)CC4)cnn3c2)cn1 [Compound 180, 2-((2-(4-(6-(1-methyl-1H-pyrazol-4-yl)pyrazolo[1,5-a]pyridin-3-yl)piperazin-1-yl)pyrimidin-5-yl)methyl)-1,3,4-oxadiazole] |
| 6.03 | 0.696 µM | CC(C)(C)OC(=O)N1CCN(c2cnn3cc(-c4cnn5c4CCCC5)ccc23)CC1 [Compound 236, tert-butyl 4-(4,5,6,7-tetrahydro-[3,6′-bipyrazolo[1,5-a]pyridin]-3′-yl)piperazine-1-carboxylate] |
| 7.38 | 3.63 µM | CN(Cc1ccccc1)C(=O)C1CC=C(c2cnn3cc(-c4cnn(C)c4)ccc23)C1 (stereo not shown) [Compound 135, N-benzyl-N-methyl-3-(6-(1-methyl-1H-pyrazol-4-yl)pyrazolo[1,5-a]pyridin-3-yl)cyclopent-3-ene-1-carboxamide] |
| 3.67 | 2.11 µM | Cn1cc(-c2ccc3c(N4CCN(C(=O)OCC5CC(F)(F)C5)CC4)cnn3c2)cn1 [Compound 308, (3,3-difluorocyclobutyl)methyl 4-[6-(1-methyl-1H-pyrazol-4-yl)pyrazolo[1,5-a]pyridin-3-yl]piperazine-1-carboxylate] |
| 4.37 | 0.00231 µM | Cn1cc(-c2ccc3c(N4CCN(c5nnc(Cc6ccccc6)s5)CC4)cnn3c2)cn1 [Compound 306, 2-benzyl-5-(4-(6-(1-methyl-1H-pyrazol-4-yl)pyrazolo[1,5-a]pyridin-3-yl)piperazin-1-yl)-1,3,4-thiadiazole] |
| 11.69 | 1.42 µM | Cn1cnc(-c2ccc3c(N4CCN(C(=O)OC(C)(C)C)CC4)cnn3c2)c1 [Compound 226, tert-butyl 4-(6-(1-methyl-1H-imidazol-4-yl)pyrazolo[1,5-a]pyridin-3-yl)piperazine-1-carboxylate] |
| 0.83 | > 10 µM | CN(CCN(C)c1cnc2nc(C3CCOC3)ccn12)C(=O)OC(C)(C)C (stereo not shown) [Compound 100] |
| 9.78 | 0.05 µM | Cn1cc(-c2ccc3c(N4CCN(S(=O)(=O)NCc5ccc(Cl)cc5)CC4)cnn3c2)cn1 [Compound 292, N-(4-chlorobenzyl)-4-(6-(1-methyl-1H-pyrazol-4-yl)pyrazolo[1,5-a]pyridin-3-yl)piperazine-1-sulfonamide] |
| 6.53 | 0.415 µM | Cn1cc(-c2ccc3c(N4CCN(c5ncc(CC6CCCCC6)cn5)CC4)cnn3c2)cn1 [Compound 62, 3-{4-[5-(cyclohexylmethyl)pyrimidin-2-yl]piperazin-1-yl}-6-(1-methyl-1H-pyrazol-4-yl)pyrazolo[1,5-a]pyridine] |
| 2.27 | > 10 µM | CN(CCCNc1cnn2cc(-c3cnn(C)c3)ccc12)c1ncc(Cc2ccccc2)cn1 [Compound 129, N^1-(5-benzylpyrimidin-2-yl)-N^1-methyl-N^3-(6-(1-methyl-1H-pyrazol-4-yl)pyrazolo[1,5-a]pyridin-3-yl)propane-1,3-diamine] |
| 4.31 | 6.52 µM | C[C@@H](OC(=O)N1CCN(c2cnc3nc(-c4cnn(C)c4)ccn23)CC1)c1ccccc1 [Compound 116, (R)-1-phenylethyl 4-(7-(1-methyl-1H-pyrazol-4-yl)imidazo[1,2-a]pyrimidin-3-yl)piperazine-1-carboxylate] |
| 5.85 | 9.54 µM | CC1CN(c2ncc(Cc3ccccc3)cn2)CCN1c1cnn2cc(-c3cnn(C)c3)ccc12 (stereo not shown) [Compound 142, 3-(4-(5-benzylpyrimidin-2-yl)-2-methylpiperazin-1-yl)-6-(1-methyl-1H-pyrazol-4-yl)pyrazolo[1,5-a]pyridine] |
| 2.75 | > 10 µM | Cn1cc(-c2ccc3c(N4CC5(CN(c6ncc(Cc7ccccc7)cn6)C5)C4)cnn3c2)cn1 [Compound 48, 3-[6-(5-benzylpyrimidin-2-yl)-2,6-diazaspiro[3.3]hept-2-yl]-6-(1-methyl-pyrazol-4-yl)pyrazolo[1,5-a]pyridine] |
| 6.13 | 1.4 µM | CN(Cc1ccc(Cl)cc1)C(=O)N1CCN(c2cnn3cc(-c4cnn(C)c4)ccc23)CC1 [Compound 278, N-(4-chlorobenzyl)-N-methyl-4-[6-(1-methyl-1H-pyrazol-4-yl)pyrazolo[1,5-a]pyridin-3-yl]piperazine-1-carboxamide] |
| 4.54 | 1.44 µM | Cn1cc(-c2ccc3c(N4CCN(C5=NCC(c6ccccc6)O5)CC4)cnn3c2)cn1 (stereo not shown) [Compound 56, 6-(1-Methyl-1H-pyrazol-4-yl)-3-[4-(5-phenyl-4,5-dihydro-1,3-oxazol-2-yl)piperazin-1-yl]pyrazolo[1,5-a]pyridine] |
| 4.75 | 2.97 µM | Cn1cc(-c2ccc3c(N4CC(c5ncc(Cc6ccccc6)cn5)C4)cnn3c2)cn1 [Compound 72, 3-[3-(5-benzylpyrimidin-2-yl)azetidin-1-yl]-6-(1-methyl-1H-pyrazol-4-yl)pyrazolo[1,5-a]pyridine] |
| 0.76 | > 10 µM | CC(C)(C)OC(=O)N1CCN(c2cnn3cc(C4CCC(O)C4)ccc23)CC1 (stereo not shown) [Compound 215, tert-butyl 4-[6-(3-hydroxycyclopentyl)pyrazolo[1,5-a]pyridin-3-yl]piperazine-1-carboxylate] |
| 0.92 | > 10 µM | CC(C)(C)OC(=O)N1CCN(c2cnc3cc(C4CCOC4)ncn23)CC1 (stereo not shown) [Compound 90, tert-butyl 4-(7-(tetrahydrofuran-3-yl)imidazo[1,2-c]pyrimidin-3-yl)piperazine-1-carboxylate] |
